# Test results as given in patent US6737383B1, “Herbicidal oxadiazolidines” (priority 1999, dated 2004).
# Columns and labels:
# purple nutsedge = experiment: Test B pre/postemergence purple nutsedge; type: in vivo, Cyperus rotundus
# How it was run: (§1)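 Response is a visual 0-to-10 score relative to untreated plants, where 0 means no effect and 10 means complete control, taken twelve to sixteen days after application. Treatments went onto soil at planting and onto foliage of 1- to 4-leaf plants, using a surfactant-containing non-phytotoxic solvent.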
# cocklebur = experiment: Test B pre/postemergence cocklebur; type: in vivo, Xanthium strumarium
# How it was run: as §1
# corn = experiment: Test B pre/postemergence corn; type: in vivo, Zea mays
# How it was run: as §1
# rape = experiment: Test B pre/postemergence rape; type: in vivo, Brassica napus
# How it was run: as §1
# blackgrass = experiment: Test B pre/postemergence blackgrass; type: in vivo, Alopecurus myosuroides
# How it was run: as §1
# wild oat = experiment: Test B pre/postemergence wild oat; type: in vivo, Avena fatua
# How it was run: as §1
# giant foxtail = experiment: Test B pre/postemergence giant foxtail; type: in vivo, Setaria faberii
# How it was run: as §1
# bedstraw = experiment: Test B pre/postemergence bedstraw; type: in vivo, Galium aparine
# How it was run: as §1
# surinam grass = experiment: Test B pre/postemergence surinam grass; type: in vivo, Brachiaria decumbens
# How it was run: as §1
# velvetleaf = experiment: Test B pre/postemergence velvetleaf; type: in vivo, Abutilon theophrasti
# How it was run: as §1
# sugar beet = experiment: Test B pre/postemergence sugar beet; type: in vivo, Beta vulgaris
# How it was run: as §1
# crabgrass = experiment: Test B pre/postemergence crabgrass; type: in vivo, Digitaria sanguinalis
# How it was run: as §1
# soybean = experiment: Test B pre/postemergence soybean; type: in vivo, Glycine max
# How it was run: as §1
# morningglory = experiment: Test B pre/postemergence morningglory; type: in vivo, Ipomoea hederacea
# How it was run: as §1
# pigweed = experiment: Test B pre/postemergence pigweed; type: in vivo, Amaranthus retroflexus
# How it was run: as §1
# wheat = experiment: Test B pre/postemergence wheat; type: in vivo, Triticum aestivum
# How it was run: as §1
# [1] = Preemergence, Rate 125 g/ha, scale of 0 to 10 where 0 is no effect and 10 is complete control
# [2] = Preemergence, Rate 250 g/ha, scale 0 to 10 (0 no effect, 10 complete control)
# [3] = Preemergence, Rate 500 g/ha, scale of 0 to 10 where 0 is no effect and 10 is complete control
# [4] = Rate 1000 g/ha, Preemergence, scale 0 to 10 (0 no effect, 10 complete control)
# [5] = Preemergence, Rate 62 g/ha, scale of 0 to 10 where 0 is no effect and 10 is complete control
# [6] = Postemergence, Rate 62 g/ha, scale 0 to 10, 0 is no effect, 10 is complete control
# [7] = Postemergence, Rate 125 g/ha, scale of 0 to 10 where 0 is no effect and 10 is complete control
# [8] = Preemergence, Rate 250 g/ha, scale 0 (no effect) to 10 (complete control)
# [9] = Rate 250 g/ha, Postemergence, scale 0 to 10, 0 is no effect, 10 is complete control
# [10] = Rate 500 g/ha, Postemergence, scale 0 to 10, 0 is no effect, 10 is complete control
smiles,measurement,setting,value
COP(=O)(CCn1c(=O)on(C(=O)N(c2ccc(Cl)cc2)C(C)C)c1=O)OC [Compound 698],"Plant response rating, Nutsedge",purple nutsedge; [1],0
same,"Plant response rating, Cocklebur",cocklebur; [1],0
same,"Plant response rating, Cocklebur",cocklebur; [2],0
same,"Plant response rating, Cocklebur",cocklebur; [3],0
same,"Plant response rating, Cocklebur",cocklebur; [4],0
same,"Plant response rating, Corn",corn; [1],0
same,"Plant response rating, Corn",corn; [2],0
same,"Plant response rating, Corn",corn; [4],0
same,"Plant response rating, Rape",rape; [1],0
same,"Plant response rating, Rape",rape; [4],8
same,"Plant response rating, Blackgrass",blackgrass; [1],0
same,"Plant response rating, Blackgrass",blackgrass; [2],2
same,"Plant response rating, Blackgrass",blackgrass; [3],8
same,"Plant response rating, Blackgrass",blackgrass; [4],9
same,"Plant response rating, Wild oats",wild oat; [1],0
same,"Plant response rating, Wild oats",wild oat; [4],10
same,"Plant response rating, Giant foxtail",giant foxtail; [1],0
same,"Plant response rating, Giant foxtail",giant foxtail; [4],10
same,"Plant response rating, Bedstraw",bedstraw; [1],0
same,"Plant response rating, Bedstraw",bedstraw; [2],0
same,"Plant response rating, Bedstraw",bedstraw; [3],0
same,"Plant response rating, Bedstraw",bedstraw; [4],0
same,"Plant response rating, B. signalgrass",surinam grass; [1],0
same,"Plant response rating, B. signalgrass",surinam grass; [2],3
same,"Plant response rating, B. signalgrass",surinam grass; [3],5
same,"Plant response rating, B. signalgrass",surinam grass; [4],4
same,"Plant response rating, Velvetleaf",velvetleaf; [1],0
same,"Plant response rating, Velvetleaf",velvetleaf; [4],0
same,"Plant response rating, Sugarbeets",sugar beet; [1],0
same,"Plant response rating, Sugarbeets",sugar beet; [4],0
same,"Plant response rating, Crabgrass",crabgrass; [1],3
same,"Plant response rating, Crabgrass",crabgrass; [2],8
same,"Plant response rating, Crabgrass",crabgrass; [4],9
same,"Plant response rating, Soybean",soybean; [1],0
same,"Plant response rating, Soybean",soybean; [4],3
same,"Plant response rating, Morningglory",morningglory; [1],0
same,"Plant response rating, Morningglory",morningglory; [4],0
same,"Plant response rating, Redroot pigweed",pigweed; [1],0
same,"Plant response rating, Redroot pigweed",pigweed; [4],0
same,"Plant response rating, Wheat",wheat; [1],0
same,"Plant response rating, Wheat",wheat; [4],6
CC(C)N(C(=O)n1oc(=O)n(C(C)C(=S)N(C)C)c1=O)c1ccccc1 (stereo not shown) [Compound 704],Nutsedge plant response rating,purple nutsedge; [5],0
same,"Plant response rating, Nutsedge",purple nutsedge; [1],0
same,Cocklebur plant response rating,cocklebur; [5],0
same,"Plant response rating, Cocklebur",cocklebur; [1],0
same,"Plant response rating, Cocklebur",cocklebur; [2],0
same,"Plant response rating, Cocklebur",cocklebur; [3],0
same,Corn plant response rating,corn; [5],0
same,"Plant response rating, Corn",corn; [1],0
same,"Plant response rating, Corn",corn; [2],0
same,Rape plant response rating,rape; [5],0
same,"Plant response rating, Rape",rape; [1],0
same,Blackgrass plant response rating,blackgrass; [5],2
same,"Plant response rating, Blackgrass",blackgrass; [1],6
same,"Plant response rating, Blackgrass",blackgrass; [2],10
same,"Plant response rating, Blackgrass",blackgrass; [3],10
same,Wild oats plant response rating,wild oat; [5],0
same,"Plant response rating, Wild oats",wild oat; [1],0
same,Giant foxtail plant response rating,giant foxtail; [5],4
same,"Plant response rating, Giant foxtail",giant foxtail; [1],7
same,Bedstraw plant response rating,bedstraw; [5],0
same,"Plant response rating, Bedstraw",bedstraw; [1],0
same,"Plant response rating, Bedstraw",bedstraw; [2],0
same,B. signalgrass plant response rating,surinam grass; [5],2
same,"Plant response rating, B. signalgrass",surinam grass; [1],5
same,"Plant response rating, B. signalgrass",surinam grass; [2],8
same,"Plant response rating, B. signalgrass",surinam grass; [3],9
same,Velvetleaf plant response rating,velvetleaf; [5],0
same,"Plant response rating, Velvetleaf",velvetleaf; [1],0
same,Sugarbeets plant response rating,sugar beet; [5],0
same,"Plant response rating, Sugarbeets",sugar beet; [1],3
same,Crabgrass plant response rating,crabgrass; [5],5
same,"Plant response rating, Crabgrass",crabgrass; [1],8
same,"Plant response rating, Crabgrass",crabgrass; [2],8
same,Soybean plant response rating,soybean; [5],0
same,"Plant response rating, Soybean",soybean; [1],0
same,Morningglory plant response rating,morningglory; [5],0
same,"Plant response rating, Morningglory",morningglory; [1],0
same,Redroot pigweed plant response rating,pigweed; [5],0
same,"Plant response rating, Redroot pigweed",pigweed; [1],5
same,Wheat plant response rating,wheat; [5],0
same,"Plant response rating, Wheat",wheat; [1],0
CC(C)N(C(=O)n1oc(=O)n(CC(F)F)c1=O)c1ccc(F)cc1 [Compound 710],"Plant response rating, Nutsedge",purple nutsedge; [6],0
same,Nutsedge plant response rating,purple nutsedge; [7],0
same,"Plant response rating, Nutsedge",purple nutsedge; [1],0
same,Nutsedge plant response rating,purple nutsedge; [8],0
same,Nutsedge plant response rating,purple nutsedge; [9],0
same,Nutsedge plant response rating,purple nutsedge; [10],3
same,"Plant response rating, Cocklebur",cocklebur; [6],0
same,Cocklebur plant response rating,cocklebur; [7],0
same,Cocklebur plant response rating,cocklebur; [5],0
same,"Plant response rating, Cocklebur",cocklebur; [1],0
same,Cocklebur plant response rating,cocklebur; [8],0
same,"Plant response rating, Cocklebur",cocklebur; [3],0
same,Cocklebur plant response rating,cocklebur; [9],0
same,Cocklebur plant response rating,cocklebur; [10],0
same,"Plant response rating, Corn",corn; [6],0
same,Corn plant response rating,corn; [7],0
same,Corn plant response rating,corn; [5],0
same,"Plant response rating, Corn",corn; [1],0
same,Corn plant response rating,corn; [8],0
same,Corn plant response rating,corn; [9],0
same,Corn plant response rating,corn; [10],2
same,"Plant response rating, Rape",rape; [6],0
same,Rape plant response rating,rape; [7],0
same,Rape plant response rating,rape; [5],7
same,"Plant response rating, Rape",rape; [1],8
same,Rape plant response rating,rape; [8],8
same,Rape plant response rating,rape; [9],3
same,Rape plant response rating,rape; [10],5
same,"Plant response rating, Blackgrass",blackgrass; [6],5
same,Blackgrass plant response rating,blackgrass; [7],6
same,Blackgrass plant response rating,blackgrass; [5],9
same,"Plant response rating, Blackgrass",blackgrass; [1],9
same,Blackgrass plant response rating,blackgrass; [8],9
same,"Plant response rating, Blackgrass",blackgrass; [3],10
same,Blackgrass plant response rating,blackgrass; [9],6
same,Blackgrass plant response rating,blackgrass; [10],6
same,"Plant response rating, Wild oats",wild oat; [6],1
same,Wild oats plant response rating,wild oat; [7],3
same,Wild oats plant response rating,wild oat; [5],8
same,"Plant response rating, Wild oats",wild oat; [1],9
same,Wild oats plant response rating,wild oat; [8],9
same,Wild oats plant response rating,wild oat; [9],5
same,Wild oats plant response rating,wild oat; [10],6
same,"Plant response rating, Giant foxtail",giant foxtail; [6],8
same,Giant foxtail plant response rating,giant foxtail; [7],8
same,Giant foxtail plant response rating,giant foxtail; [5],10
same,"Plant response rating, Giant foxtail",giant foxtail; [1],10
same,Giant foxtail plant response rating,giant foxtail; [8],10
same,Giant foxtail plant response rating,giant foxtail; [9],9
same,Giant foxtail plant response rating,giant foxtail; [10],9
same,Bedstraw plant response rating,bedstraw; [7],1
same,Bedstraw plant response rating,bedstraw; [5],3
same,"Plant response rating, Bedstraw",bedstraw; [1],3
same,Bedstraw plant response rating,bedstraw; [8],5
same,"Plant response rating, Bedstraw",bedstraw; [3],7
same,Bedstraw plant response rating,bedstraw; [9],6
same,Bedstraw plant response rating,bedstraw; [10],8
same,"Plant response rating, B. signalgrass",surinam grass; [6],5
same,B. signalgrass plant response rating,surinam grass; [7],5
same,B. signalgrass plant response rating,surinam grass; [5],8
same,"Plant response rating, B. signalgrass",surinam grass; [1],8
same,B. signalgrass plant response rating,surinam grass; [8],8
same,"Plant response rating, B. signalgrass",surinam grass; [3],9
same,B. signalgrass plant response rating,surinam grass; [9],6
same,B. signalgrass plant response rating,surinam grass; [10],7
same,"Plant response rating, Velvetleaf",velvetleaf; [6],5
same,Velvetleaf plant response rating,velvetleaf; [7],6
same,Velvetleaf plant response rating,velvetleaf; [5],5
same,"Plant response rating, Velvetleaf",velvetleaf; [1],6
same,Velvetleaf plant response rating,velvetleaf; [8],7
same,Velvetleaf plant response rating,velvetleaf; [9],6
same,Velvetleaf plant response rating,velvetleaf; [10],6
same,"Plant response rating, Sugarbeets",sugar beet; [6],0
same,Sugarbeets plant response rating,sugar beet; [7],0
same,Sugarbeets plant response rating,sugar beet; [5],6
same,"Plant response rating, Sugarbeets",sugar beet; [1],6
same,Sugarbeets plant response rating,sugar beet; [8],8
same,Sugarbeets plant response rating,sugar beet; [9],3
same,Sugarbeets plant response rating,sugar beet; [10],6
same,"Plant response rating, Crabgrass",crabgrass; [6],8
same,Crabgrass plant response rating,crabgrass; [7],9
same,Crabgrass plant response rating,crabgrass; [5],10
same,"Plant response rating, Crabgrass",crabgrass; [1],10
same,Crabgrass plant response rating,crabgrass; [8],10
same,Crabgrass plant response rating,crabgrass; [9],9
same,Crabgrass plant response rating,crabgrass; [10],9
same,"Plant response rating, Soybean",soybean; [6],3
same,Soybean plant response rating,soybean; [7],4
same,Soybean plant response rating,soybean; [5],0
same,"Plant response rating, Soybean",soybean; [1],0
same,Soybean plant response rating,soybean; [8],3
same,Soybean plant response rating,soybean; [9],4
same,Soybean plant response rating,soybean; [10],5
same,"Plant response rating, Morningglory",morningglory; [6],4
same,Morningglory plant response rating,morningglory; [7],4
same,Morningglory plant response rating,morningglory; [5],0
same,"Plant response rating, Morningglory",morningglory; [1],0
same,Morningglory plant response rating,morningglory; [8],0
same,Morningglory plant response rating,morningglory; [9],4
same,Morningglory plant response rating,morningglory; [10],8
same,"Plant response rating, Redroot pigweed",pigweed; [6],8
same,Redroot pigweed plant response rating,pigweed; [7],8
same,Redroot pigweed plant response rating,pigweed; [5],8
same,"Plant response rating, Redroot pigweed",pigweed; [1],8
same,Redroot pigweed plant response rating,pigweed; [8],10
same,Redroot pigweed plant response rating,pigweed; [9],9
same,Redroot pigweed plant response rating,pigweed; [10],9
same,"Plant response rating, Wheat",wheat; [6],0
same,Wheat plant response rating,wheat; [7],0
same,Wheat plant response rating,wheat; [5],5
same,"Plant response rating, Wheat",wheat; [1],6
same,Wheat plant response rating,wheat; [8],7
same,Wheat plant response rating,wheat; [9],4
same,Wheat plant response rating,wheat; [10],6
